The target of one test is 5-HT2C receptor (Homo sapiens (Human), UniProt P28335). As to the kind of experiment: biochemical. The format is binding. The settings on record: radioligand [3H]-Mesulergine, cell membrane, 27° C. 60 min.
The target in a further test is 5-HT2A receptor (Homo sapiens (Human), UniProt P28223). As to the kind of experiment: biochemical. The class given is binding. The note with it: radioligand [3H]-ketanserin, cell membrane, 27° C. 90 min.

Broadly, the IC50 is the concentration that inhibits the measured activity by half.

Sequence of 5-HT2C receptor (P28335 33-458 limits assumed): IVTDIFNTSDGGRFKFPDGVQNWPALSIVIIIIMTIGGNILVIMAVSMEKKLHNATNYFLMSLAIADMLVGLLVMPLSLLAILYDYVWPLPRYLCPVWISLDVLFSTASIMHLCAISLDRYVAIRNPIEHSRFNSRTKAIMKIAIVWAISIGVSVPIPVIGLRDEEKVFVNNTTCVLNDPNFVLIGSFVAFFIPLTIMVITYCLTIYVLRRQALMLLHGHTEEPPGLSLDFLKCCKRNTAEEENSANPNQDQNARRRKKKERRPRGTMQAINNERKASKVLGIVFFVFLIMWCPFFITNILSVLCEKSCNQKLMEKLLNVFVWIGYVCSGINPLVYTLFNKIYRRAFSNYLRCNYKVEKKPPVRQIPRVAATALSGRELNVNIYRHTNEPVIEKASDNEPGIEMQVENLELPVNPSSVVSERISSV
Procedure for 5-HT2A receptor: Compound binding was calculated as a % inhibition of the binding of a radioactively labeled ligand specific for each receptor. Results with inhibition >50% were considered to represent significant effects. In each experiment, the respective reference compound was tested in parallel with the test compounds, and the data were compared with previous values determined at Eurofins.
Bovine Serum Albumin (BSA), calcium chloride (CaCl2)), and polyethylenimine, branched (PEI) were purchased from Sigma. Tris(hydroxymethl)aminomethane (Tris) was purchased from Alfa Aesar.
Microbeta^2 microplate counter, MicroBeta Filtermate-96, and UniFilter-96 GF/C were purchased from PerkinElmer. TopSeal was purchased from Biotss. Seven Compact pH meter was purchased from Mettler Toledo. Ultrapure water meter was purchased from Sichuan Ulupure. Benchtop Centrifuge was purchased from Hunan Xiangyi. Microplate shaker was purchased from Allsheng. 384-Well Polypropylene Microplate was purchased from Labcyte. 96 round well plate was purchased from Corning. 96 round deep well plate was purchased from Axygen. Echo was purchased from LABCYTE. • 1. Prepare the assay buffer following the table below:
• 2. […] Read the plate by using a Microbeta^2 microplate counter.
• 11. […] The IC50 is determined by fitting percentage of inhibition function of compound concentrations with Hill equation using XLfit.

Turning to `[2H]C([2H])([2H])N1C[C@@H](NC(=O)N(CC)OC)C=C2c3cccc4[nH]cc(c34)C[C@H]21` [Example 6a, 1-ethyl-1-methoxy-3-((6aR,9S)-7-(methyl-d3)-4,6,6a,7,8,9-hexahydroindolo[4,3-fg]quinolin-9-yl)urea], the concentration for half-maximal inhibition (IC50) at 5-HT2C receptor was 0.096 µM; on 5-HT2A receptor, 0.0026 µM.
For the compound `[2H]C([2H])([2H])N1C[C@H](NC(=O)N(CC)OC)C=C2c3cccc4[nH]cc(c34)C[C@H]21` [Example 6b, 1-ethyl-1-methoxy-3-((6aR,9R)-7-(methyl-d3)-4,6,6a,7,8,9-hexahydroindolo[4,3-fg]quinolin-9-yl) urea], the IC50 at 5-HT2C receptor was 0.312 µM; on 5-HT2A receptor, 0.0065 µM.

The values above are taken from patent US20240279226A1, “ERGOLINE-DERIVED AGONISTS OF THE 5-HT2A RECEPTOR” (priority 2021, published 2024).
